In the supplement of paper PMC4954754:
± gives the uncertainty stated by the source.

Assays:
Conditions in all cases: 18 h
HEK293T-Rex ERSE-FLuc [1] = assay: EC50 for ERSE-FLuc reporter activation
Experimental: (§1)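 Dose-response of hit compounds in HEK293T-Rex cells stably expressing ERSE-FLuc or XBP1-RLuc reporters, 18 hr treatment, 1536-well; luminescence normalised to 500 nM thapsigargin (100%) and DMSO (0%), fitted to give EC50 (M) and maximal activation; '>' marks EC50 above the top tested dose (~17 µM).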

HEK293T-Rex XBP1-RLuc [2] = assay: EC50 for XBP1-RLuc reporter activation
Experimental: as §1

HEK293T-Rex ERSE-FLuc [3] = assay: maximal ERSE-FLuc activation from dose-response fit, relative to thapsigargin (% of thapsigargin); higher = stronger activation
Experimental: as §1

HEK293T-Rex XBP1-RLuc [4] = assay: maximal XBP1-RLuc activation from dose-response fit, relative to thapsigargin (% of thapsigargin); higher = stronger activation
Experimental: as §1

Row | SMILES | EC50 for ERSE-FLuc reporter activation (HEK293T-Rex ERSE-FLuc [1]) | EC50 for XBP1-RLuc reporter activation (HEK293T-Rex XBP1-RLuc [2]) | maximal ERSE-FLuc activation (HEK293T-Rex ERSE-FLuc [3]) | maximal XBP1-RLuc activation (HEK293T-Rex XBP1-RLuc [4])
1 | COc1ccc(-c2csc(N(CC3CCCO3)C(=O)CCl)n2)cc1 (configuration not stated) | > 16.9 µM | > 16.9 µM | 17.5 ± 3.4 | 10.3 ± 0.8
2 | Cc1ccc(O)c(NC(=O)CSc2ccccc2)c1 | 3.9 µM | > 16.9 µM | 83.1 ± 25 | 21.2 ± 3.5
3 | COc1ccc(C2C=C3Oc4ccccc4N=C3NN2)cc1 (configuration not stated) | > 16.9 µM | > 16.9 µM | 27 ± 2.8 | 14.1 ± 2.1
4 | COc1ccccc1/C=C/C(=O)Nc1ccc(Cl)cn1 | > 15.1 µM | > 15.1 µM | 27.3 ± 3.7 | 8.83 ± 0.86
5 | Cc1ccc(NC(=S)NC(=O)C(=O)Nc2ccccc2)cc1 | > 16.9 µM | > 16.9 µM | 6.38 ± 2.8 | 2.05 ± 0.91
6 | Nc1cn(-c2ccccc2)nc1-c1cccs1 | > 19.6 µM | 3.71 µM | 47.7 ± 4.1 | 156 ± 4.4
7 | CCC(=O)N(Cc1cc2cc(C)ccc2n2nnnc12)C1CCCC1 | > 16.9 µM | > 16.9 µM | 20.1 ± 5.6 | 1.64 ± 4.2
8 | O=[N+]([O-])c1ccc(N/N=C/c2ccccc2O)cc1 | > 16.9 µM | 13 µM | 44.5 ± 7.8 | 68.9 ± 7.5
9 | CCOc1cccc(C(=O)Nc2ccc(-c3nc4ccc(C(=O)c5ccccc5)cc4[nH]3)cc2)c1 | > 11.5 µM | 2.33 µM | 25.2 ± 5 | 66.4 ± 12
10 | CCCNC(=O)c1cc(-c2cccs2)on1 | 7.59 µM | > 16.9 µM | 92.7 ± 11 | 9.95 ± 1.4
11 | c1ccc2cc(-c3cnnc(N4CCOCC4)n3)ccc2c1 | > 16.9 µM | > 16.9 µM | 25.2 ± 10 | 4.15 ± 2.7
12 | Oc1ccc(-c2cnc3c(Nc4ccc5[nH]ccc5c4)nccn23)cc1 | > 16.9 µM | > 16.9 µM | 21.4 ± 3.8 | 37.8 ± 9.5
13 | Cc1ccccc1NC(=O)c1sc2nc(N)c(C#N)c(-c3ccc(C(C)C)cc3)c2c1N | 4.01 µM | 4.47 µM | 169 ± 22 | 122 ± 17
14 | CCCCCC(=O)Nc1ccc(C(=O)Nc2ccccc2O)cc1 | 8.09 µM | > 15.6 µM | 112 ± 10 | 21.2 ± 1.6
15 | Nc1ccccc1NC(=O)c1ccc(C(F)(F)F)cc1 | 9.12 µM | > 19.9 µM | 73.1 ± 8.1 | 37.7 ± 3.5
16 | O=C(COC(=O)c1ccc(O)c(O)c1)Nc1nc(-c2ccccc2)cs1 | > 18.2 µM | 16.8 µM | 36.1 ± 4.4 | 53.4 ± 3.6
17 | O=C1N/C(=C/c2ccc(O)cc2)C(=O)N1Cc1ccc(Br)cc1 | > 15.8 µM | 4.02 µM | 47.9 ± 1.7 | 70.6 ± 14
18 | O=C(Nc1ccccc1O)c1ccc(NS(=O)(=O)c2cccc3cccnc23)cc1 | 10 µM | > 16.9 µM | 85.2 ± 7.5 | 21.8 ± 6.3
19 | C=CCNC(=O)c1cc(-c2cccs2)on1 | 5.28 µM | > 16.9 µM | 124 ± 2.7 | 12.8 ± 0.79
20 | COc1cccc(C(=O)/C=C/Nc2cc(C)ccc2O)c1 | 4 µM | 6.99 µM | 229 ± 0.77 | 72.5 ± 3.2
21 | Cc1ccc(O)c(NC(=O)c2cc(-c3ccc(F)cc3)on2)c1 | > 16.9 µM | > 16.9 µM | 31 ± 7.9 | 18.8 ± 3.2
22 | OCCNc1nc(Nc2ccc(Cl)cc2)nc2ccccc12 | 6.19 µM | 9.68 µM | 155 ± 12 | 87.4 ± 1.1

Row | SMILES | EC50 for ERSE-FLuc reporter activation (HEK293T-Rex ERSE-FLuc [1]) | EC50 for XBP1-RLuc reporter activation (HEK293T-Rex XBP1-RLuc [2]) | maximal ERSE-FLuc activation (HEK293T-Rex ERSE-FLuc [3]) | maximal XBP1-RLuc activation (HEK293T-Rex XBP1-RLuc [4])
23 | N#C/C(=C/c1ccc(O)c(O)c1)c1nc2ccccc2[nH]1 | > 16.9 µM | > 16.9 µM | 29 ± 5.2 | 20.7 ± 5.2
24 | COc1c(O)cc2oc(-c3ccc(O)c(O)c3)cc(=O)c2c1O | 3.69 µM | 8.02 µM | 129 ± 3.5 | 57.9 ± 2.8
25 | O=C(COC(=O)c1cc(O)c(O)c(O)c1)Nc1ccc(Br)cc1F | > 16.9 µM | > 16.9 µM | 41.7 ± 3.5 | 26.4 ± 2.7
26 | O=c1[nH]c(COc2ccccc2)nc2sc3c(c12)CCCC3 | > 16.3 µM | > 16.3 µM | 23.3 ± 2.4 | 6.01 ± 1.1
27 | CN(C)c1ccc(C2C(C#N)=C(N)Oc3c2sc2ccccc32)cc1[N+](=O)[O-] (configuration not stated) | > 17.2 µM | > 17.2 µM | 15.8 ± 4.9 | 4.37 ± 1
28 | COc1cn(-c2ccc(F)cc2)nc1C(=O)Nc1ccccc1SC | 6.64 µM | > 16.9 µM | 80.8 ± 17 | 40.2 ± 0.22
29 | COc1ccccc1/C=N/Nc1nc(-c2ccccc2)cc(=O)[nH]1 | > 16.9 µM | > 16.9 µM | 28.3 ± 0.49 | 5.2 ± 9.3
30 | CCCCNc1ncnc2c1cnn2-c1ccc(Cl)cc1 | > 19.5 µM | > 19.5 µM | 25.4 ± 3 | 2.05 ± 1.1
31 | CCOc1ccc(NC(=O)c2cccc(F)c2)c([N+](=O)[O-])c1 | > 14.3 µM | > 14.3 µM | 26.4 ± 1.6 | 2.67 ± 1.8
32 | COc1cccc(-c2nc3ccc(N)cc3[nH]2)c1 | > 16.9 µM | > 16.9 µM | 20.8 ± 3.1 | 14.7 ± 3.4
33 | COc1ccc(/C=N/c2sc3c(c2C(N)=O)CCCC3)cc1 | > 16.9 µM | > 16.9 µM | 20.9 ± 2 | 4.94 ± 3.8
34 | Cc1ccc(/C=N/NC(=O)c2cccc(F)c2)cc1 | > 16.9 µM | > 16.9 µM | 23.1 ± 1.4 | 1.93 ± 2
35 | N#Cc1c(NC(=O)c2ccc3c(c2)OCO3)sc2c1CCCC2 | > 16.9 µM | > 16.9 µM | 18.3 ± 3.2 | 1.79 ± 3.7
36 | CC(C)CNC(=O)c1cc(-c2ccc(F)cc2)no1 | > 16.9 µM | > 16.9 µM | 20.8 ± 5.8 | 4.76 ± 1.8
37 | COc1ccc(/C(C)=N/OC/C(O)=C(\C#N)c2nc3ccccc3[nH]2)cc1OC | > 17.2 µM | > 17.2 µM | 5.39 ± 2.3 | 3.33 ± 0.88
38 | Cc1ccc(O)c(NC(=O)c2cc(-c3cccs3)on2)c1 | 2.78 µM | > 16.9 µM | 126 ± 5.9 | 32.4 ± 6.1
39 | COCCNC(=O)c1cc(-c2cccs2)on1 | 15.5 µM | > 16.9 µM | 54.1 ± 14 | 9.6 ± 3.2
40 | COc1ccc(/C=N/NC(=O)c2cccc(F)c2)cc1Br | > 16.9 µM | > 16.9 µM | 31 ± 5.5 | 1.14 ± 6.2
41 | O=C(N/N=C/c1ccc(Cl)cc1)c1n[nH]c2c1CCCC2 | > 16.9 µM | > 16.9 µM | 21.7 ± 1.7 | 6.88 ± 3.1
42 | CC(=O)Oc1ccc2cc(NC(=O)c3ccc(C)cc3)c(=O)oc2c1 | > 15.1 µM | > 15.1 µM | 25.8 ± 1.6 | 14.6 ± 0.94
43 | CCc1cc2c(=O)c(-c3ccc4c(c3)OCCO4)coc2cc1OC | > 15 µM | > 15 µM | 31.2 ± 5.7 | 14.1 ± 1.5
